Legend:
[1] = tested on: patients with Alagille syndrome (ALGS); assay: 6-year event-free survival analysis, maralixibat cohort versus GALA control group; format: in vivo, human
From the text: Real-world evidence (RWE) analytics continue to advance natural history comparisons in rare diseases. GALA is the largest global clinical research database for […] syndrome (ALGS). Maralixibat (MRX) is an ileal bile acid transporter inhibitor being studied in ALGS. A pre-specified analysis plan applied novel analytical techniques to compare RWE to a MRX cohort with the aim to compare event-free survival (EFS) in patients with ALGS. GALA contains retrospective data for clinical parameters, biochemistries and outcomes. The MRX database comprises of 84 ALGS patients with up to 6 years of data. EFS was defined as the time to first event of hepatic decompensation (variceal bleeding, ascites requiring therapy), surgical biliary diversion, liver transplantation (LT), or death. GALA was filtered to align key MRX eligibility criteria. The index time was determined via maximum likelihood estimation. Balance among baseline (BL) variables was assessed. Selection of patients and index time was blinded to clinical outcomes. Sensitivity and subgroup analyses, and adjustments for covariates were applied. Missing outcomes data were censored at last contact.

[2] = tested on: patients with BSEP deficiency (PFIC2); assay: INDIGO Phase 2 trial, HRQoL analysis by sBA treatment response at week 48; format: in vivo, human; parameters: key to HRQoL score at week 48, PedsQL Generic Core Scale / HRQoL score at week 48, Multidimensional Fatigue Scale / HRQoL score at week 48, Family Impact Scale: HRQoL scale scores in points; MCID = 5 points; key to Beta, sBA treatment response at week 48 Yes vs No, Multidimensional Fatigue Scale / Beta, sBA treatment response at week 48 Yes vs No, Family Impact Scale: change from baseline in HRQoL score, in points (MCID 5 points); details: for 5-point change, Family Impact Scale / 5-point change, Multidimensional Fatigue Scale / 5-point change, PedsQL Generic Core Scale / 10-point change, Family Impact Scale / 10-point change, Multidimensional Fatigue Scale / 10-point change, PedsQL Generic Core Scale: baseline to week 48; for HRQoL score at week 48, Family Impact Scale / HRQoL score at week 48, Multidimensional Fatigue Scale / HRQoL score at week 48, PedsQL Generic Core Scale / HRQoL score change from baseline to week 48, Family Impact Scale: mean ± SD
Procedure: This retrospective analysis included data from patients with BSEP deficiency from the INDIGO Phase 2 open-label trial of MRX in children with PFIC. Pruritus was measured using a validated caregiver-reported Itch Reported Outcome (ItchRO) severity assessment tool (0=none to 4=very severe). Serum bile acid (sBA) response with MRX was defined as a >75% decrease from baseline or reduction to <102 μmol/L from baseline to week 48. HRQoL was assessed using the Pediatric Quality of Life Inventory Generic Core (PedsQL), Family Impact (FI), and Multidimensional Fatigue (MF) scale scores, and were collected via caregiver. The minimal clinically important difference (MCID) for the HRQoL assessments is 5 points. A subset of individual items from the HRQoL scales were also selected for assessment with treatment response. HRQoL was assessed at baseline and week 48 and scores were stratified by treatment response. P-values were calculated using t-test or ANOVA. Multivariate linear regression models were used to assess the relationship between mean change from baseline in HRQoL score and indicators for treatment response, adjusting for baseline HRQoL.

[3] = over the 48 weeks, controlling for baseline score

Structure (SMILES): CCCCC1(CCCC)CS(=O)(=O)c2ccc(N(C)C)cc2[C@@H](c2ccc(OCc3ccc(C[N+]45CCN(CC4)CC5)cc3)cc2)[C@H]1O [maralixibat]
- crude 6-year EFS ([1]; MRX cohort, patients with ALGS (GALA control 50%)): 73%
- EFS hazard ratio (HR), MRX cohort vs GALA control ([1]; adjusted for age, sex, TB, ALT, 95% CI:0.189-0.491, p<0.0001): 0.305
- patients who achieved sBA treatment response ([2]; at 48 weeks): 6 patients
- patients who achieved sBA treatment response (>75% decrease from baseline or <102 μmol/L) ([2]; at 48 weeks): 28.6%
- Beta, sBA treatment response at week 48 Yes vs No, Multidimensional Fatigue Scale ([2]; multivariate regression, N = 16, CI 3.5, 41.1): 22.3
- Beta, sBA treatment response at week 48 Yes vs No, Family Impact Scale ([2]; multivariate regression, N = 20, CI −7.7, 19.4): 5.8
- average increase of Multidimensional Fatigue scale score, sBA responders versus non-responders [2, 3]: 22 points
- mean increase of PedsQL score, sBA responders versus non-responders [2, 3]: 17 points
- 5-point change, Family Impact Scale ([2]; sBA Non-responders): 1 (7.1) n (%)
- 5-point change, Multidimensional Fatigue Scale ([2]; sBA Non-responders): 3 (25.0) n (%)
- 5-point change, PedsQL Generic Core Scale ([2]; sBA Non-responders): 2 (15.4) n (%)
- 10-point change, Family Impact Scale ([2]; sBA Non-responders): 1 (7.1) n (%)
- 10-point change, Multidimensional Fatigue Scale ([2]; sBA Non-responders): 2 (16.7) n (%)
- 10-point change, PedsQL Generic Core Scale ([2]; sBA Non-responders): 2 (15.4) n (%)
- HRQoL score at week 48, Family Impact Scale ([2]; sBA Non-responders): 62.7 ± 16.0
- HRQoL score at week 48, Multidimensional Fatigue Scale ([2]; sBA Non-responders): 69.2 ± 18.5
- HRQoL score at week 48, PedsQL Generic Core Scale ([2]; sBA Non-responders): 65.9 ± 13.8
- HRQoL score change from baseline to week 48, Family Impact Scale ([2]; sBA Non-responders): −2.5 ± 9.8
- 5-point change, Family Impact Scale ([2]; sBA Responders): 4 (66.7) n (%)
- 5-point change, Multidimensional Fatigue Scale ([2]; sBA Responders): 4 (100) n (%)
- 5-point change, PedsQL Generic Core Scale ([2]; sBA Responders): 4 (80.0) n (%)
- 10-point change, Family Impact Scale ([2]; sBA Responders): 4 (66.7) n (%)
- 10-point change, Multidimensional Fatigue Scale ([2]; sBA Responders): 4 (100) n (%)
- 10-point change, PedsQL Generic Core Scale ([2]; sBA Responders): 3 (60.0) n (%)
- HRQoL score at week 48, Family Impact Scale ([2]; sBA Responders): 60.0 ± 15.5
- HRQoL score at week 48, Multidimensional Fatigue Scale ([2]; sBA Responders): 76.0 ± 13.4
- HRQoL score at week 48, PedsQL Generic Core Scale ([2]; sBA Responders): 79.3 ± 9.5
- HRQoL score change from baseline to week 48, Family Impact Scale ([2]; sBA Responders): 8.0 ± 20.7
- patients with a change of ≥5 points in PedsQL Generic Core Total Scale Score ([2]; sBA non-responders): 15.4%
- patients with a ≥10-point change in PedsQL Multidimensional Fatigue Total Scale Score ([2]; sBA non-responders): 16.7%
- change in Family Impact Score from baseline to week 48 ([2]; sBA responders): > 1.5 times the MCID
- patients with a change of ≥5 points in PedsQL Generic Core Total Scale Score ([2]; sBA responders): 80.0%
- patients with a ≥10-point change in PedsQL Multidimensional Fatigue Total Scale Score ([2]; sBA responders): 100%
